Consider 1 molecule from article PMC5403251 (Neuropharmacology, 2016).

One assay deals with T1, sigma-2 (Rattus norvegicus, UniProt Q5U3Y7).
T1 sequence (Q5U3Y7 1-176): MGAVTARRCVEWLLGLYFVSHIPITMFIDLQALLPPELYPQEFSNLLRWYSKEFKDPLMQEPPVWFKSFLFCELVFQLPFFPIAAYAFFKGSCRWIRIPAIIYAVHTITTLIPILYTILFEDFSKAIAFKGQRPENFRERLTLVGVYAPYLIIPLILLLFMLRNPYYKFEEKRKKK
The experiment in a line: NIMH PDSP binding screen.

Assay [1] has as its system C57BL/6J mice. The experiment in a line: Discrete-trials temporal discrimination task. In kind it is in vivo, mouse.
Another assay relates to NIH Swiss mice. The conditions noted are these: mediated by the 5-HT2A receptor, ref Fantegrossi et al., 2014; cited from earlier work.
A further assay addresses β2 (Homo sapiens, UniProt P07550). Nature of the assay: NIMH PDSP binding screen.
The target in another assay is T2, α2C (Homo sapiens, UniProt P18825).
T2 sequence (P18825 1-462): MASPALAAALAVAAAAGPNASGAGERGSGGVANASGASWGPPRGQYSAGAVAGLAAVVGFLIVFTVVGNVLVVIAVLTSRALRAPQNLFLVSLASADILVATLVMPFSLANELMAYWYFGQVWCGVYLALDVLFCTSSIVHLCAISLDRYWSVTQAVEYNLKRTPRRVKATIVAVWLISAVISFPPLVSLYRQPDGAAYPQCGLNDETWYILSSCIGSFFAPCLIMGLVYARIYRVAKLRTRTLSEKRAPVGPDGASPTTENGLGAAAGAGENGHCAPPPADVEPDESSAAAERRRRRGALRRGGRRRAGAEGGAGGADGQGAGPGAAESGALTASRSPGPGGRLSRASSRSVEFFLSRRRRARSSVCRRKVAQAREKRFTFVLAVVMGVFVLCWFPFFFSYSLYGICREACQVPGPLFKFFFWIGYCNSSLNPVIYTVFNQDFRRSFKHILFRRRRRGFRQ
Nature of the assay: NIMH PDSP binding screen.

The target in the next assay is histaminergic H2 (Homo sapiens, UniProt P25021). Nature of the assay: NIMH PDSP binding screen.
Chain of histaminergic H2 (P25021 whole entry): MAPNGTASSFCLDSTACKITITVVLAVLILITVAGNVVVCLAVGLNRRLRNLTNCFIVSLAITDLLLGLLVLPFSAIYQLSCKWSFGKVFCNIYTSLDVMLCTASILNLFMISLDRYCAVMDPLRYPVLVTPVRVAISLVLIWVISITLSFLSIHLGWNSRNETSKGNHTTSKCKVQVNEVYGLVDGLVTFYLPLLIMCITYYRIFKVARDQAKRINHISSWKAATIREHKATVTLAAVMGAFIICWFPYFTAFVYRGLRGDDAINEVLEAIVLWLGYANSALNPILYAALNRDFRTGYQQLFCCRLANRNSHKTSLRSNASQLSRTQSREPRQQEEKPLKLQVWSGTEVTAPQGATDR
The next assay deals with T3, α2B (Homo sapiens, UniProt P18089).
T3 sequence (P18089 1-450): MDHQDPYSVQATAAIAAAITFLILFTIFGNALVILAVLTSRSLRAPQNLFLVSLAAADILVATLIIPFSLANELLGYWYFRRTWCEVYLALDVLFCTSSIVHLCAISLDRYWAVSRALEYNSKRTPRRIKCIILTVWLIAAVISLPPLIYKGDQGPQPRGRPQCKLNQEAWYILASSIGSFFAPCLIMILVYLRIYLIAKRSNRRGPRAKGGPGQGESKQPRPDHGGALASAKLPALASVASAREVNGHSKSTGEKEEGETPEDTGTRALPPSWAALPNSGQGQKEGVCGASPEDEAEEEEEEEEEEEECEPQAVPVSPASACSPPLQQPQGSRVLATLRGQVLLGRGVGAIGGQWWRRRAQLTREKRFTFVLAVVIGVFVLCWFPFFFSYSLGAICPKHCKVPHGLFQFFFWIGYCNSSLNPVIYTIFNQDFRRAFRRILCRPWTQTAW
Nature of the assay: NIMH PDSP binding screen.

Another assay has as its target T4, human 5-HT2C receptor (Homo sapiens, UniProt P28335).
T4 sequence (P28335 33-458): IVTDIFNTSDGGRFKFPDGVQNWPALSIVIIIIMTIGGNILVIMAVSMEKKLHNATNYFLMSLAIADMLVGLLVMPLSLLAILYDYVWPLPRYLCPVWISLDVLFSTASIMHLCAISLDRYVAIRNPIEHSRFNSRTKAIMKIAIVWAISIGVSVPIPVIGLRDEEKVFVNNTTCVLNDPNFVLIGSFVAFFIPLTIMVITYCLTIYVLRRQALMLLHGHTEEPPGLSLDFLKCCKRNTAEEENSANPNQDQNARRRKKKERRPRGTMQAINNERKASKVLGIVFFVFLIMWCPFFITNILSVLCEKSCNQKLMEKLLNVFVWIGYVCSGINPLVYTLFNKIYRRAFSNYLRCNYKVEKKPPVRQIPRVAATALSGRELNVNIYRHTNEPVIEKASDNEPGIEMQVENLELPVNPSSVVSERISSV
Nature of the assay: NIMH PDSP competitive radioligand binding, [3H]mesulergine.

The target in another assay is 5-HT6 (Homo sapiens, UniProt P50406). Nature of the assay: NIMH PDSP binding screen.
Chain of 5-HT6 (P50406 whole entry, species assumed): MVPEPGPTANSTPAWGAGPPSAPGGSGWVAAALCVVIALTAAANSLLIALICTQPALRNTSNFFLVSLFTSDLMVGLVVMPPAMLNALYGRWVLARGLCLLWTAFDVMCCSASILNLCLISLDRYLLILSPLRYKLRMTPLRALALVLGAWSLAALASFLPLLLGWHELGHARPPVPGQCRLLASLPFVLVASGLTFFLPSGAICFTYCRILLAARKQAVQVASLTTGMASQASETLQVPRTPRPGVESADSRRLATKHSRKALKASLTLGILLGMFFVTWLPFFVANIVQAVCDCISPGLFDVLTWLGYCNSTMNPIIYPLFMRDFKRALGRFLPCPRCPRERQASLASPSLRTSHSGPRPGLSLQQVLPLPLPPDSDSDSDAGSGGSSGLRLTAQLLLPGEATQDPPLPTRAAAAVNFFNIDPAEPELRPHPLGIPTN
In assay [2] the test system is C57BL/6J mice. Nature of the assay: Head twitch response. In kind it is in vivo, mouse.
In another assay the target is T5, α2A (Homo sapiens, UniProt P08913).
T5 sequence (P08913 1-465): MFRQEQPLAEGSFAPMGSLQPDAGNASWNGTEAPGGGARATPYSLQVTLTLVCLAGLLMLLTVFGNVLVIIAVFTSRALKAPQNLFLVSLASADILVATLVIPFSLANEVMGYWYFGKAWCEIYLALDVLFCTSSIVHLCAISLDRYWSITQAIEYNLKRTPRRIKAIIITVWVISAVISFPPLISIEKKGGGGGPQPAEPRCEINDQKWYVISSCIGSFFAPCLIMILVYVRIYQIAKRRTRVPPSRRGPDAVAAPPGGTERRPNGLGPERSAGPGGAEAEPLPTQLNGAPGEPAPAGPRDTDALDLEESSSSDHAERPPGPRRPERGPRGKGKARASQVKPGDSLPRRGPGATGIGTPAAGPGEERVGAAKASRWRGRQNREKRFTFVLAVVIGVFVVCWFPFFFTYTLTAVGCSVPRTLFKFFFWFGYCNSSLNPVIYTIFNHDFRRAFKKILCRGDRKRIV
Nature of the assay: NIMH PDSP binding screen.

Where [3] appears, read: 25CN-NBOH 1 mg/kg SC, 5 min before session.
[4] abbreviates: 25CN-NBOH 6 mg/kg SC, 5 min before session.

Chain of β2 (P07550 whole entry): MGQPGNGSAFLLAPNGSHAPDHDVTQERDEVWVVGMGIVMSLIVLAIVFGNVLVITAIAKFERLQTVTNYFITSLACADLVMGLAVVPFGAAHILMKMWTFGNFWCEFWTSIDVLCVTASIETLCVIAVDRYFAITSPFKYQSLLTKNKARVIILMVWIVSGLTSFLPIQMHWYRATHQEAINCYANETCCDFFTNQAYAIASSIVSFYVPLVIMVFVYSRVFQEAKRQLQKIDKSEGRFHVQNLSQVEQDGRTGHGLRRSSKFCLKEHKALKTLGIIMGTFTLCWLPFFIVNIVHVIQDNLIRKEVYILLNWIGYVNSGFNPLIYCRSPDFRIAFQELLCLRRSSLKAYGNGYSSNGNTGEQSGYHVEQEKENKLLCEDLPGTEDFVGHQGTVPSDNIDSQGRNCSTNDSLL

On to `COc1cc(CCNCc2ccccc2O)c(OC)cc1C#N.Cl` [25CN-NBOH, N-(2-hydroxybenzyl)-2,5-dimethoxy-4-cyanophenethylamine hydrochloride], for which the Ki (in general, the equilibrium dissociation constant of an inhibitor or competing ligand from its target) was 0.575 µM on sigma-2; 1.61 µM at β2; 0.543 µM at α2C; 1.51 µM on histaminergic H2; 1.23 µM at α2B; 0.0498 ± 0.0074 µM on human 5-HT2C receptor. The Ki on 5-HT6 was 0.573 µM; on α2A, 0.803 µM. The figures for the Difference limen in the assay with C57BL/6J mice [1] (setting [3]) and in the assay with C57BL/6J mice [1] (setting [4]) were 1.09 ± 0.11 s and 1.65 ± 0.12 s, respectively. In addition, the “Slope (ε)” value in the assay on C57BL/6J mice [1] (setting [3]) is reported as 1.098±0.125. Further, the T50 amounted to 6.33 ± 0.20 s in the assay on C57BL/6J mice [1] (setting [3]) and 7.63 ± 0.24 s in the assay with C57BL/6J mice [1] (setting [4]). For the same molecule, the Trials completed in the assay on C57BL/6J mice [1] (setting [3]) stood at 182.4±3.7; in the assay on C57BL/6J mice [1] (setting [4]), 134.5±8.4. The Weber fraction in the assay with C57BL/6J mice [1] (25CN-NBOH 1 mg/kg SC, 5 min before session, mean±SEM) is reported as 0.175±0.020; with C57BL/6J mice [1] (setting [4]) it was 0.217±0.015. For the same molecule, the “%B responding (proportional choice of lever B)” value was “reduced %B responding at long stimulus intervals” with C57BL/6J mice [1] (25CN-NBOH 6 mg/kg SC) and “did not significantly alter %B responding” with C57BL/6J mice [1] (25CN-NBOH 0.3–3 mg/kg SC). The “Correct responding during the 10.5 s-trials” value with C57BL/6J mice [1] (after drug treatment that reduced %B responding at long stimulus intervals) is on record as “more than 80%”. Further, the “Head twitch response (HTR)” value with NIH Swiss mice was “induce the head twitch response”. Besides, the ED50 (in general, the dose at which the effect has come halfway, by size or by number of responders) in the assay on C57BL/6J mice [2] (Mus musculus, sc, 0.5 h, read-out: HTR ED50) was 0.36 mg/kg. In the assay with C57BL/6J mice [2] (SC, 30-min session), the “Dose producing the maximal HTR response” value came out at 3 mg/kg.
